Here are results for one compound from publication PMC4006692 (Journal of biomolecular screening, 2013).

In one data set the target is HIV-1 Nef dimerization (Human immunodeficiency virus type 1 group M subtype B, UniProt P03407). Particulars: up to a final DMSO concentration of 2.5%.
A further data set deals with 293T cells. Particulars: final DMSO concentration.

Chain of HIV-1 Nef dimerization (P03407 2-210): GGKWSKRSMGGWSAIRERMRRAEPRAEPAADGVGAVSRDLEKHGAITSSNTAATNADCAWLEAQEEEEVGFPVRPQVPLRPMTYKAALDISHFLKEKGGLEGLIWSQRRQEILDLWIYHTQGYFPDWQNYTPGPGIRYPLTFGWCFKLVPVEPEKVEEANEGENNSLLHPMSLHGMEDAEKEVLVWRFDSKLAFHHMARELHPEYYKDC

`C[S+](C)[O-]` [DMSO]: the “BiFC/mRFP ratio of WT2A” value on HIV-1 Nef dimerization is reported as “essentially unchanged”. Further, in the data set with 293T cells, the “IC50 of cell loss (cell density)” value was “approximately 1%” and the “concentration causing cell loss” value is listed as “above 0.6%”.
